{"source": "patent US20040143009A1", "about": "“Amines, uses thereof” (L'OREAL, priority 2002, published 2004)", "key": {"[1]": {"test_system": "rat-isolated phrenic nerve/diaphragm (striated muscle) preparation", "assay": "Nerve/muscle (motor plate) junction model, isolated phrenic nerve/diaphragm preparation", "settings": "at 10^-4 M", "procedure": "Compound 1 was tested on a nerve/muscle (motor plate) junction model obtained in a rat-isolated phrenic nerve/diaphragm (striated muscle) preparation (Pollard B. J. et al., Br. J. Anaesth., 1988, 61, 419-424).\n(§1) This test is predictive of an antiwrinkle effect, as was verified by the applicant on diazepam, which is both active in vivo in humans and in this test at 10^−4 M.\nThe phrenic nerve and the diaphragm are carefully isolated and placed in a 50 ml tank filled with survival fluid (Krebs Henseleit fluid) kept at a temperature of 37° C. and oxygenated with an oxygen/CO2 (95/5) mixture.\nVariations in the tension of the diaphragm are recorded with an initial preload of several grams.\nAfter a relaxation period of 30 min, the diaphragm is indirectly stimulated by means of the phrenic nerve.\nOn each preparation, the effect of the test compound was evaluated on contractions induced by indirect stimulation via stimulation on the phrenic nerve (0.1 to 0.5 volts, 0.3 ms, 0.1 Hz). Alverine, known as a muscle-relaxing compound with antiwrinkle effect according to application FR-2 798 590, is used as control."}, "[2]": {"assay": "Antiwrinkle effect in vivo in humans", "text": "as §1"}}}
{"smiles": "CN1C(=O)CN=C(c2ccccc2)c2cc(Cl)ccc21", "note": "[diazepam]", "values": [{"measurement": "activity in the nerve/muscle junction test", "setting": "[1]", "result": "active"}, {"measurement": "antiwrinkle activity in vivo in humans", "setting": "[2]", "result": "active"}]}
